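Method: 48-hour compound exposure of cells in 96-well plates, five concentrations, linear interpolation of endpoints. Abbreviation: GI50, concentration required for 50% inhibition of growth.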 The source made the active and inactive calls. Cut-off read from the data, not from the text of the source: active = GI50 up to about 1.1 µM and inactive = higher.
How the values were obtained:
Test in all cases: NCI tumour cell line growth inhibition, 48 h
786-0 = tested on: 786-0
A498 = tested on: A498
A549 = tested on: A549
ACHN = tested on: ACHN
CAKI-1 = tested on: CAKI-1
CCRF-CEM = tested on: CCRF-CEM
COLO 205 = tested on: COLO 205
DLD-1 = tested on: DLD-1
DMS-114 = tested on: DMS-114
DMS-273 = tested on: DMS-273
EKVX = tested on: EKVX
HCC 2998 = tested on: HCC 2998
HCT-116 = tested on: HCT-116
HCT-15 = tested on: HCT-15
HL-60 = tested on: HL-60
HOP-18 = tested on: HOP-18
HOP-62 = tested on: HOP-62
HOP-92 = tested on: HOP-92
HT-29 = tested on: HT-29
IGROV-1 = tested on: IGROV-1
K562 = tested on: K562
KM12 = tested on: KM12
LXFL 529 = tested on: LXFL 529
M14 = tested on: M14
M19-MEL = tested on: M19-MEL
Malme-3M = tested on: Malme-3M
NCI-H226 = tested on: NCI-H226
NCI-H23 = tested on: NCI-H23
NCI-H460 = tested on: NCI-H460
NCI-H522 = tested on: NCI-H522
OVCAR-3 = tested on: OVCAR-3
OVCAR-4 = tested on: OVCAR-4
OVCAR-5 = tested on: OVCAR-5
OVCAR-8 = tested on: OVCAR-8
RXF 393 = tested on: RXF 393
SF-268 = tested on: SF-268
SF-295 = tested on: SF-295
SF-539 = tested on: SF-539
SK-MEL-28 = tested on: SK-MEL-28
SK-MEL-2 = tested on: SK-MEL-2
SK-OV-3 = tested on: SK-OV-3
SN12C = tested on: SN12C
SNB-19 = tested on: SNB-19
SNB-75 = tested on: SNB-75
SNB-78 = tested on: SNB-78
SR = tested on: SR
SW-620 = tested on: SW-620
TK-10 = tested on: TK-10
U-251 = tested on: U-251
UACC-257 = tested on: UACC-257
UACC-62 = tested on: UACC-62
UO-31 = tested on: UO-31
XF498 = tested on: XF498
KM-20L2 = tested on: KM-20L2
LOX IMVI = tested on: LOX IMVI
MOLT-4 = tested on: MOLT-4
RPMI-8226 = tested on: RPMI-8226
SK-MEL-5 = tested on: SK-MEL-5

CS(=O)(=O)Oc1cccc(/C=N/N=C(\N)NO)c1
GI50 (786-0): 19.3 µM (inactive) | GI50 (A498): 73.1 µM (inactive) | GI50 (A549): 21.8 µM (inactive) | GI50 (ACHN): 22.2 µM (inactive) | GI50 (CAKI-1): 20.9 µM (inactive) | GI50 (CCRF-CEM): 23.9 µM (inactive) | GI50 (COLO 205): 26.7 µM (inactive) | GI50 (DLD-1): 24.9 µM (inactive) | GI50 (DMS-114): 9.55 µM (inactive) | GI50 (DMS-273): 19.9 µM (inactive) | GI50 (EKVX): 34 µM (inactive) | GI50 (HCC 2998): 20.6 µM (inactive) | GI50 (HCT-116): 32.9 µM (inactive) | GI50 (HCT-15): 35.1 µM | GI50 (HL-60): 19 µM (inactive) | GI50 (HOP-18): 69.8 µM (inactive) | GI50 (HOP-62): 27.5 µM (inactive) | GI50 (HOP-92): 22.4 µM (inactive) | GI50 (HT-29): 24.8 µM (inactive) | GI50 (IGROV-1): 35.2 µM (inactive) | GI50 (K562): 19.1 µM (inactive) | GI50 (KM12): 25.1 µM (inactive) | GI50 (LXFL 529): 19.2 µM (inactive) | GI50 (M14): 27.1 µM (inactive) | GI50 (M19-MEL): 42.5 µM (inactive) | GI50 (Malme-3M): 23.1 µM (inactive) | GI50 (NCI-H226): 23.3 µM (inactive) | GI50 (NCI-H23): 27.2 µM (inactive) | GI50 (NCI-H460): 24.8 µM (inactive) | GI50 (NCI-H522): 26.2 µM (inactive) | GI50 (OVCAR-3): 35.2 µM (inactive) | GI50 (OVCAR-4): 18 µM (inactive) | GI50 (OVCAR-5): 36 µM (inactive) | GI50 (OVCAR-8): 33.2 µM (inactive) | GI50 (RXF 393): 37.4 µM (inactive) | GI50 (SF-268): 24.2 µM (inactive) | GI50 (SF-295): 49.3 µM (inactive) | GI50 (SF-539): 28.6 µM (inactive) | GI50 (SK-MEL-28): > 100 µM (inactive) | GI50 (SK-MEL-2): 34.8 µM (inactive) | GI50 (SK-OV-3): 27 µM (inactive) | GI50 (SN12C): 29.2 µM (inactive) | GI50 (SNB-19): 64.9 µM (inactive) | GI50 (SNB-75): 2.96 µM (inactive) | GI50 (SNB-78): > 100 µM (inactive) | GI50 (SR): 27.4 µM (inactive) | GI50 (SW-620): 19.9 µM (inactive) | GI50 (TK-10): 14.7 µM (inactive) | GI50 (U-251): 27.7 µM (inactive) | GI50 (UACC-257): 38.8 µM (inactive) | GI50 (UACC-62): 4.84 µM (inactive) | GI50 (UO-31): 22.8 µM (inactive) | GI50 (XF498): 10.7 µM (inactive)

O=[N+]([O-])c1cccc(/C=N/C23CC4CC(CC(C4)C2)C3)c1
GI50 (786-0): > 100 µM (inactive) | GI50 (A498): > 100 µM (inactive) | GI50 (A549): > 100 µM (inactive) | GI50 (ACHN): > 100 µM (inactive) | GI50 (CAKI-1): > 100 µM (inactive) | GI50 (CCRF-CEM): 25.1 µM (inactive) | GI50 (COLO 205): > 100 µM (inactive) | GI50 (DLD-1): > 100 µM (inactive) | GI50 (DMS-114): > 100 µM (inactive) | GI50 (DMS-273): > 100 µM (inactive) | GI50 (EKVX): > 100 µM (inactive) | GI50 (HCC 2998): > 100 µM (inactive) | GI50 (HCT-116): > 100 µM (inactive) | GI50 (HCT-15): > 100 µM | GI50 (HL-60): 23.9 µM (inactive) | GI50 (HOP-18): > 100 µM (inactive) | GI50 (HOP-62): > 100 µM (inactive) | GI50 (HOP-92): > 100 µM (inactive) | GI50 (HT-29): > 100 µM (inactive) | GI50 (IGROV-1): > 100 µM (inactive) | GI50 (K562): 29.7 µM (inactive) | GI50 (KM-20L2): > 100 µM (inactive) | GI50 (KM12): > 100 µM (inactive) | GI50 (LOX IMVI): 63.7 µM (inactive) | GI50 (LXFL 529): > 100 µM (inactive) | GI50 (M14): > 100 µM (inactive) | GI50 (M19-MEL): > 100 µM (inactive) | GI50 (MOLT-4): 74.1 µM (inactive) | GI50 (Malme-3M): > 100 µM (inactive) | GI50 (NCI-H226): > 100 µM (inactive) | GI50 (NCI-H23): > 100 µM (inactive) | GI50 (NCI-H460): > 100 µM (inactive) | GI50 (NCI-H522): > 100 µM (inactive) | GI50 (OVCAR-3): > 100 µM (inactive) | GI50 (OVCAR-4): > 100 µM (inactive) | GI50 (OVCAR-5): > 100 µM (inactive) | GI50 (OVCAR-8): > 100 µM (inactive) | GI50 (RPMI-8226): > 10 µM (inactive) | GI50 (RXF 393): > 100 µM (inactive) | GI50 (SF-268): > 100 µM (inactive) | GI50 (SF-295): > 100 µM (inactive) | GI50 (SF-539): > 100 µM (inactive) | GI50 (SK-MEL-28): > 100 µM (inactive) | GI50 (SK-MEL-2): > 100 µM (inactive) | GI50 (SK-MEL-5): 70.8 µM (inactive) | GI50 (SK-OV-3): > 100 µM (inactive) | GI50 (SN12C): > 100 µM (inactive) | GI50 (SNB-19): > 100 µM (inactive) | GI50 (SNB-75): > 100 µM (inactive) | GI50 (SNB-78): > 100 µM (inactive) | GI50 (SW-620): 57.1 µM (inactive) | GI50 (TK-10): > 100 µM (inactive) | GI50 (U-251): > 100 µM (inactive) | GI50 (UACC-257): > 100 µM (inactive) | GI50 (UACC-62): > 100 µM (inactive) | GI50 (UO-31): > 100 µM (inactive) | GI50 (XF498): > 100 µM (inactive)

Source: ChEMBL document CHEMBL1201862, “PubChem BioAssay data set” (2004)
